Columns and labels:
[1] = treatment of premenstrual syndrome and/or premenstrual dysphoric disorder (reduction of symptoms); type: in vivo; settings: compared with other compounds, particularly other magnesium salts (like magnesium oxide)
[2] = stability over time of dihydrate versus anhydrous form; type: physicochemical; settings: compared to non-dihydrate (anhydrous) magnesium N-acetyl-taurinate

In the case of magnesium N-acetyl-taurinate, the “effectiveness (reduction of symptoms) in the treatment of premenstrual syndrome and/or premenstrual dysphoric disorder” value [1] is reported as “more effective (reduction of symptoms) than the other compounds”.
For magnesium N-acetyl-taurinate dihydrate, the stability over time [2] was “increased as compared to non-dihydrate magnesium N-acetyl-taurinate”.

— patent publication US12383520B2, “Compound and composition for use in the treatment of premenstrual syndrome and/or premenstrual dysphoric disorder” (SYNAPHARM […], priority 2019, dated 2025)
